Data set [1] in a line: Toxicity in Wistar rat assessed as absolute heart weight at 2000 mg/kg, po measured after 14 days (reference value: 0.86 +/- 0.09 g). The data set is classed as organism-based. Particulars: in vivo, 336 h, time 14 day.
For data set [2], the system named is Staphylococcus aureus. The experiment in a line: Antibacterial activity against methicillin-resistant Staphylococcus aureus BNCC 337371 assessed as bacterial growth inhibition incubated for 18 to 24 hrs by NCCLS based assay. The data set is classed as functional. Particulars: time 18-24 hrs.
Data set [3] in a line: Toxicity in Wistar rat assessed as relative heart weight at 2000 mg/kg, po measured after 14 days (reference value: 0.36 +/- 0.03 %). The data set is classed as organism-based. The conditions noted are these: in vivo, 336 h, time 14 day.
A short description of data set [4]: Cytotoxicity against HEK293T cells assessed as cell viability at 200 uM incubated for 6 hrs by CCK8 assay relative to control. The data set is classed as toxicity, cell-based, HEK-293T. Particulars: human, read-out: Activity. On the technique in general: Tetrazolium dyes change colour on reduction, which living cells bring about.
Data set [5] is described as follows: Toxicity in Wistar rat assessed as relative spleen weight at 2000 mg/kg, po measured after 14 days (reference value: 0.20 +/- 0.07 %). The data set is classed as organism-based. Particulars: in vivo, 336 h, time 14 day.
Data set [6] is described as follows: Toxicity in Wistar rat assessed as absolute lungs weight at 2000 mg/kg, po measured after 14 days (reference value: 1.38 +/- 0.17 g). The data set is classed as organism-based. The conditions noted are these: in vivo, 336 h, time 14 day.
In data set [7] the test system is Staphylococcus epidermidis. The experiment in a line: Antibacterial activity against methicillin-resistant Staphylococcus epidermidis ATCC 51625 assessed as bacterial growth inhibition incubated for 18 to 24 hrs by NCCLS based assay. The data set is classed as functional. The conditions noted are these: time 18-24 hrs.
Data set [8] in a line: Cytotoxicity against HEK293T cells assessed as cell viability incubated for 6 hrs by CCK8 assay. The data set is classed as toxicity, cell-based, HEK-293T. The conditions noted are these: human.
A short description of data set [9]: Toxicity in Wistar rat assessed as absolute liver weight at 2000 mg/kg, po measured after 14 days (reference value: 10.02 +/- 0.44 g). The data set is classed as organism-based. The conditions noted are these: in vivo, 336 h, time 14 day.
The test system of data set [10] is Staphylococcus aureus. Kind of data set: Antibacterial activity against methicillin-resistant Staphylococcus aureus infected in neutropenic Balb/c mouse model assessed as thickening of alveolar septa in lungs at 40 mg/kg, iv measured after 5 days. The data set is classed as functional, organism-based. The conditions noted are these: time 5.0 day.
Data set [11] has as its system Staphylococcus aureus. The experiment in a line: Drug sensitivity against Staphylococcus aureus at 1/4 times MIC measured after 4 passages. The data set is classed as functional, organism-based.
Data set [12] in a line: Toxicity in Wistar rat assessed as degeneration of alveolar epithelial cells in lungs at 2000 mg/kg, po measured for 14 days by H and E staining based analysis. The data set is classed as organism-based. Particulars: in vivo, 336 h, time 14 day.

In brackets after ≈: the same amount, converted by molar mass. Activity calls are given as the source filed them.

`C=C[C@]1(C)C[C@@H](OC(=O)CSc2ncnc(N(C)C)n2)[C@]2(C)[C@H](C)CC[C@]3(CCC(=O)[C@H]32)[C@@H](C)[C@@H]1O`: the Activity in [1] is given as 0.75 g; in data set [3] it was 0.34%; in data set [5] it was 0.26%; in data set [6] it was 1.21 g; in data set [9], 9.09 g; in [12], “Toxic”. Also, the minimum inhibitory concentration (MIC) came out at 0.031 µg/mL (≈ 0.06 µM) in data set [2] and 0.125 µg/mL (≈ 0.242 µM) in [7]. Further, the viability at 6 h, 200 µM in data set [4] turned out to be 66.9%. In addition, in [8], the CC50 at 6 h came to 50.1 µM. In addition, the result in data set [10] and in data set [11] was Active.

The term MIC denotes the smallest concentration in the dilution series that meets the test's criterion for growth inhibition. Usually CC50 stands for the concentration at which the toxic effect on the cells reaches its halfway point.

The values are drawn from ChEMBL document CHEMBL5634148, “Synthesis and evaluation of novel pleuromutilin derivatives targeting the 50S ribosomal subunit for antibacterial ability” (Eur J Med Chem, 2023).
